# Assay results from US6608086B2, “Dihydropyridines and new uses thereof” (Synaptic Pharmaceutical Corporation, priority 1993, dated 2003).
# Where two headings read alike, the source gives them in different places.
# What was measured:
# L-type calcium channel = biological target: T1, L-type calcium channel (Rattus norvegicus, UniProt P22002); assay: Competition binding of [3H]nitrendipine to membrane fragments of rat cardiac muscle
# T1 construct: membrane fragments of rat cardiac muscle; from tissue; host or cells: rat cardiac muscle membranes
# T1 sequence (P22002 whole entry, other chains not shown, the tested form may be a part): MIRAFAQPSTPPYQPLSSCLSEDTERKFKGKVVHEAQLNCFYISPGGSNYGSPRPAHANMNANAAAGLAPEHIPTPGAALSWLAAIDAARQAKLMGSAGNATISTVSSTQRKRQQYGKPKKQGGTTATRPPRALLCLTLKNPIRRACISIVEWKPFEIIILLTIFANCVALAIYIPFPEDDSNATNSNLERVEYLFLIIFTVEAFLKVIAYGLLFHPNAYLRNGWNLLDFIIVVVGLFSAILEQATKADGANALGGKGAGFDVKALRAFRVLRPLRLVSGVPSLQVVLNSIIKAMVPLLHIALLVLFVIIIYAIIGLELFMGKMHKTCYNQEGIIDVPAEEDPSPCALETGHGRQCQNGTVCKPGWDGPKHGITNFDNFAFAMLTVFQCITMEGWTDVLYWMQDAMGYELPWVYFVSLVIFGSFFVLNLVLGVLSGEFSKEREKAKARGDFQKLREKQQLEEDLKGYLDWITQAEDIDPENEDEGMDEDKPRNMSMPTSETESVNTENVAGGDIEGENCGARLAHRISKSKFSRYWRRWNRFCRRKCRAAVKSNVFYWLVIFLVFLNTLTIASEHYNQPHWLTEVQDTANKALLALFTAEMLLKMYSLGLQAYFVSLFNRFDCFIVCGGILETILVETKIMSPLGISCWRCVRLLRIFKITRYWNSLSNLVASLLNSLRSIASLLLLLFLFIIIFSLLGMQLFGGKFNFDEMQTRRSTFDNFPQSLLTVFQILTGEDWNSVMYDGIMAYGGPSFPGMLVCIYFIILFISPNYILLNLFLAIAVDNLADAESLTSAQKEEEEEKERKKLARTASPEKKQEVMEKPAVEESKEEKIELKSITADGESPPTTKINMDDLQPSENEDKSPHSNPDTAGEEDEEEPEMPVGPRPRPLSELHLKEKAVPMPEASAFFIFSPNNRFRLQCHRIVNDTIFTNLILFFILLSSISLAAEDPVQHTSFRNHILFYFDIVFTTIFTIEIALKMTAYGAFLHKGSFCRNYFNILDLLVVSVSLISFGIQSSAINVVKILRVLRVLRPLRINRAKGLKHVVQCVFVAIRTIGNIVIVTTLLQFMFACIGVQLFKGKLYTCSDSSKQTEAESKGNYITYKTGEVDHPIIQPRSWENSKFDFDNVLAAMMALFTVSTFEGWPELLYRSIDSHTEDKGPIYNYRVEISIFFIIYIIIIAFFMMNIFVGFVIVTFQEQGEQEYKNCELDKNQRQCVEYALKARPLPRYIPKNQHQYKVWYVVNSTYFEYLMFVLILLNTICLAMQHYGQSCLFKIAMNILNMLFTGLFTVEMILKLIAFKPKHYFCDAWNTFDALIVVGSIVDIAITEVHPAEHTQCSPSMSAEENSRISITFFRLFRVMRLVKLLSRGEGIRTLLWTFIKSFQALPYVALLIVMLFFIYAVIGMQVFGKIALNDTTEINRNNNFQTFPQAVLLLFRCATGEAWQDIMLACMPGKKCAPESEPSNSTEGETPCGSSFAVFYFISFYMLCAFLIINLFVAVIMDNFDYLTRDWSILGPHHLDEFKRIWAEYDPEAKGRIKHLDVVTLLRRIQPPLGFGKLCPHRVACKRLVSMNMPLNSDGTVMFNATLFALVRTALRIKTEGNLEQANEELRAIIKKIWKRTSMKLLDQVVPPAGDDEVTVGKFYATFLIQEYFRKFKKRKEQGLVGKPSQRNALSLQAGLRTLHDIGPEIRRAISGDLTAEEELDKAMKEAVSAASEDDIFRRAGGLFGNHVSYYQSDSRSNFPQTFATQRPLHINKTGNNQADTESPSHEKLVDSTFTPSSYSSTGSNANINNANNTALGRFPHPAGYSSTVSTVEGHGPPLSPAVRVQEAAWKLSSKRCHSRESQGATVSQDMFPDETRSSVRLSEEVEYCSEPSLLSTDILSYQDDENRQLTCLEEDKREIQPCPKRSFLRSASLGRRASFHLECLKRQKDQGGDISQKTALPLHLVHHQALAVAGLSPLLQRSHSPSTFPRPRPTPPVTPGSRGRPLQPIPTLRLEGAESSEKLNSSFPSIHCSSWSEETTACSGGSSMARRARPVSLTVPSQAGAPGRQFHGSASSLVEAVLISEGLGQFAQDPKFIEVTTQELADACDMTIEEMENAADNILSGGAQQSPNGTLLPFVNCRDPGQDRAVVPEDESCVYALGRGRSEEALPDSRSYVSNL
# T1 sequence (P54290 25-944 partner limits assumed, other chains not shown): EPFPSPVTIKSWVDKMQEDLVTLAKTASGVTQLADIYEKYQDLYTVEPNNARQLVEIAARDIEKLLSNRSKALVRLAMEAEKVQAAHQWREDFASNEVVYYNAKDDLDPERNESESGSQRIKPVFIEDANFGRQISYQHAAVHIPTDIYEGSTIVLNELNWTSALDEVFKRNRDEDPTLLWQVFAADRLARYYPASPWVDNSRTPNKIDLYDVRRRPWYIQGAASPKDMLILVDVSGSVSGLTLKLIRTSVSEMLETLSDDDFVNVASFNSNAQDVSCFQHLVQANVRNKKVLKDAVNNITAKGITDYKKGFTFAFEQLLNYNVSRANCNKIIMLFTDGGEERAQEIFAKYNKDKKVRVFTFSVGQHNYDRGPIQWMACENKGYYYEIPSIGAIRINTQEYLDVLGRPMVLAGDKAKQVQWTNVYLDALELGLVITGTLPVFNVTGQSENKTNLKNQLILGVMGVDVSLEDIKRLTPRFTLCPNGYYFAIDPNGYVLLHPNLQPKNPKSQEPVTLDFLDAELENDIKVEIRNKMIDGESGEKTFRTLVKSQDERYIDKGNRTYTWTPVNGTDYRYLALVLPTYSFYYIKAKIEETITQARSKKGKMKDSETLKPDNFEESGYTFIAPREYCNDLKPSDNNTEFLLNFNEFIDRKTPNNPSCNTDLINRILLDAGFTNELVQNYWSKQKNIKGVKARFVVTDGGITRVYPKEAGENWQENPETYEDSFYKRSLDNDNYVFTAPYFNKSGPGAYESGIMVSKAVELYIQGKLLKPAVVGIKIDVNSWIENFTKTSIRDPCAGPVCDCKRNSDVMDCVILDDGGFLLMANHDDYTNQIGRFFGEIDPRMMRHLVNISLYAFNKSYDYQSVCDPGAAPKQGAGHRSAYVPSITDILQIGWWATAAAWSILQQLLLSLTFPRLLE
# T1 sequence (P54290 945-1091 partner limits assumed, other chains not shown): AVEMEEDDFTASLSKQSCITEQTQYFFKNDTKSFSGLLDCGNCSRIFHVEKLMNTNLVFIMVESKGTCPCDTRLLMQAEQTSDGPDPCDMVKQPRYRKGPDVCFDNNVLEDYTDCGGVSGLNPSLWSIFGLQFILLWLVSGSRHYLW
# Description: (§1) The protocols for these experiments are given below.
# Determination of the Activity of al Antagonists at Calcium Channels
# Briefly, the tissue was minced and homogenized in 50 mM Tris-HCl (pH 7.4) containing 0.1 mM phenylmethylsulfonyl fluoride. The homogenates were centrifuged at 1000 g for 15 minutes, the resulting supernatant was centrifuged at 45,000 g for 15 minutes. The 45,000 g pellet was suspended in buffer and centrifuged a second time. Aliquots of membrane protein were incubated for 30 minutes at 37° C. in the presence of [3H]nitrendipine (1 nM), and nonspecific binding was determined in the presence of 10 μM nifedipine. The bound radioligand was separated by filtration through GF/B filters using a cell harvester.
# α2A receptor = biological target: T2, α2A receptor (Homo sapiens, UniProt P08913); assay: Competition binding, [3H]rauwolscine, human α2A receptor; details: [3H]rauwolscine, human receptor, LM(tk-) cell lysates; mean; read-out: PKi alpha-2 2a (converted)
# T2 construct: host or cells: LM(tk-) cells, line L-α2A
# T2 sequence (P08913 1-465): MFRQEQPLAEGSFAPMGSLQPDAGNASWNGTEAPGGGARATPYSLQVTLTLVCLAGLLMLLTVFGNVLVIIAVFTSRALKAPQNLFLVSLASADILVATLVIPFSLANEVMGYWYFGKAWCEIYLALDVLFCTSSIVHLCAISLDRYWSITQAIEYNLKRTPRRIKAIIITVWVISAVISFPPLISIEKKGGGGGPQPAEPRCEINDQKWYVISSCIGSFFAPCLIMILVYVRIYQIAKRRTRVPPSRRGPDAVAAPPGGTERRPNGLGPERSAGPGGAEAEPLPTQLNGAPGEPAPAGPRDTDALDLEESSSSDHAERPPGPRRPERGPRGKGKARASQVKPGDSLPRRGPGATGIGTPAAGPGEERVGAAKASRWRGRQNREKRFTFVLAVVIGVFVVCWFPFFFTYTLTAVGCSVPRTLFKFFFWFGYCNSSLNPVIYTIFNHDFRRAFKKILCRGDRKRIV
# Description: as §1
# (§2) α2 Human Adrenergic Receptors:
# (§3) To determine the potency of […], antagonists at the α2 receptors, LM(tk−) cell lines stably transfected with the genes encoding the α2A, α2B, and α2C receptors were used. The cell line expressing the α2A receptor is designated L-α2A, and was deposited on Nov. […] The cell line expressing the α2B receptor is designated L-NGC-α2B, and was deposited on Oct. […] The cell line expressing the α2C receptor is designated L-α2C, and was deposited on Nov. […] Cell lysates were prepared as described above (see Radioligand Binding Assays), and suspended in 25 mM glycylglycine buffer (pH 7.6 at room temperature). Equilibrium competition binding assay were performed using [3H]rauwolscine (0.5 nM), and nonspecific binding was determined by incubation with 10 μM phentolamine. The bound radioligand was separated by filtration through GF/B filters using a cell harvester.
# α2C receptor = biological target: T3, α2C receptor (Homo sapiens, UniProt P18825); assay: Competition binding, [3H]rauwolscine, human α2C receptor; details: [3H]rauwolscine, human receptor, LM(tk-) cell lysates; mean; read-out: PKi alpha-2 2c (converted)
# T3 construct: host or cells: LM(tk-) cells, line L-α2C
# T3 sequence (P18825 1-462): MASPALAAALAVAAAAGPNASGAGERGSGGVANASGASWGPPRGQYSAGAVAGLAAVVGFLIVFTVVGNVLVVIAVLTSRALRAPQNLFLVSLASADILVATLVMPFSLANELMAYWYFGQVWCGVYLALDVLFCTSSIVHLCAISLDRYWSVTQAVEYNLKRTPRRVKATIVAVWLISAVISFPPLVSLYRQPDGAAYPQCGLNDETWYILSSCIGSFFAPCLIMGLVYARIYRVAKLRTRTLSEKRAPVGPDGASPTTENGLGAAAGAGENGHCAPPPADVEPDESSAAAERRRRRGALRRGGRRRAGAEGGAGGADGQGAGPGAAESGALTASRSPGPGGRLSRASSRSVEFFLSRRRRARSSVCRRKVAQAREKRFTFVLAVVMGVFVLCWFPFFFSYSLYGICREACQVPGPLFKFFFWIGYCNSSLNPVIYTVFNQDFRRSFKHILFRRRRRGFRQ
# Description: as §1, §2, §3
# α2B receptor = biological target: T4, α2B receptor (Homo sapiens, UniProt P18089); assay: Competition binding, [3H]rauwolscine, human α2B receptor; details: [3H]rauwolscine, human receptor, LM(tk-) cell lysates; mean; read-out: PKi alpha-2 2b (converted)
# T4 construct: host or cells: LM(tk-) cells, line L-NGC-α2B
# T4 sequence (P18089 1-450): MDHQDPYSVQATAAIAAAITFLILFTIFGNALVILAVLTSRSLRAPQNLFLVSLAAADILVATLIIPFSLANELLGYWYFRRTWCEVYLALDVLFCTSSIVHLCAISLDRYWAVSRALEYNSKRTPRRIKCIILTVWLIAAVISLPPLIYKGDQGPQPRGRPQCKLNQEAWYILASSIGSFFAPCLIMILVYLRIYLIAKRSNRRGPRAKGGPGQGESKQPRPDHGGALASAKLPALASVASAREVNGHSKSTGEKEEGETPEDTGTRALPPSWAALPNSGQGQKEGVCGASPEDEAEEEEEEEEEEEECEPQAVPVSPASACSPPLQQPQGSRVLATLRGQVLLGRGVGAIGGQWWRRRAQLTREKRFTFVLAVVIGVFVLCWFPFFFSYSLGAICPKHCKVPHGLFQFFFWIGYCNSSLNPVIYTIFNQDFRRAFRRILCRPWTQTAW
# Description: as §1, §2, §3
# [1] = biological target: T5, α1A Human Adrenergic Receptor (Homo sapiens, UniProt P25100); assay: Radioligand binding, [3H]prazosin, cloned human α1A adrenergic receptor
# T5 construct: The entire coding region of α1A (1719 bp); expressed in transfected cells
# T5 sequence (P25100 1-572): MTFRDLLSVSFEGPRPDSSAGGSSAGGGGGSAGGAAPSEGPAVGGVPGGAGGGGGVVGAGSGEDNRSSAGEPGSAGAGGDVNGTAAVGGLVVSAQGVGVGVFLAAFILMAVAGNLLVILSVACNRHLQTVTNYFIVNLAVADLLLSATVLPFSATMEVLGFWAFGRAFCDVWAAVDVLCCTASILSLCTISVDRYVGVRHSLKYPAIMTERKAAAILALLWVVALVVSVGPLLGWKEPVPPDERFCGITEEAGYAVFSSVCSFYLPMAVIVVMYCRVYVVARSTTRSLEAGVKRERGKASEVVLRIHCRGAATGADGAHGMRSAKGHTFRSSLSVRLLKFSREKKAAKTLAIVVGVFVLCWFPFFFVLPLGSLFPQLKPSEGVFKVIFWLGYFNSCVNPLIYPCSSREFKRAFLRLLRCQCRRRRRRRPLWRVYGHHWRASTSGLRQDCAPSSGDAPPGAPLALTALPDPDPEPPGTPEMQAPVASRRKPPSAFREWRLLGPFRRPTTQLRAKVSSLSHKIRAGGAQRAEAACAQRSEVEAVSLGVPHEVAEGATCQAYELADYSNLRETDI
# Summary of the method: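 Competition binding used membrane preparations of transfected LM(tk−) cells and the α1 antagonist [3H]prazosin at 0.5 nM, incubated 20 min at 37° C in Tris-HCl buffer, pH 7.5.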
# [2] = biological target: T6, α1B Human Adrenergic Receptor (Homo sapiens, UniProt P35368); assay: Radioligand binding, [3H]prazosin, cloned human α1B adrenergic receptor; details: cloned human receptor, LM(tk-) cell membranes, mean, read-out: PKi alpha-1 1b (converted)
# T6 construct: The entire coding region of α1B (1563 bp); expressed in transfected cells
# T6 sequence (P35368 1-520): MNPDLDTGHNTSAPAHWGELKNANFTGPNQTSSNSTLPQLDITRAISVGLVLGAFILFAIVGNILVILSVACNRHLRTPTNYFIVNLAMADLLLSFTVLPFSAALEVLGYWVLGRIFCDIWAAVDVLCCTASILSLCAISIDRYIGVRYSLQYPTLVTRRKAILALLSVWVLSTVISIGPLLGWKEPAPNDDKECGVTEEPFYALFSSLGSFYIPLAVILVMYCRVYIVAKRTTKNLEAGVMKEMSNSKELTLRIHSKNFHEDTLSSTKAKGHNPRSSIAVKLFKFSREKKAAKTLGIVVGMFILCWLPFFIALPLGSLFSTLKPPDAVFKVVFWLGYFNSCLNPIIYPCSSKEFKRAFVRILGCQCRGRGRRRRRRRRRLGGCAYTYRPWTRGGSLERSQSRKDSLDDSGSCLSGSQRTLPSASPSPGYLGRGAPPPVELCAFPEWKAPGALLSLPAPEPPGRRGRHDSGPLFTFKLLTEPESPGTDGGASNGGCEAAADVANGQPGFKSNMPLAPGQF
# Summary of the method: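 Membranes from stably transfected LM(tk−) cells, resuspended in 50 mM Tris-HCl, 1 mM MgCl2, 0.1% ascorbic acid, pH 7.5, were incubated with 0.5 nM [3H]prazosin for 20 min at 37° C. Nonspecific binding defined with 10 μM phentolamine; bound ligand separated by GF/B filtration.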
# [3] = biological target: T7, α1C Human Adrenergic Receptor (Homo sapiens, UniProt P35348); assay: Radioligand binding, [3H]prazosin, cloned human α1C adrenergic receptor; details: cloned human receptor, LM(tk-) cell membranes, mean, read-out: PKi alpha-1 1c (converted)
# T7 construct: The entire coding region of α1C (1401 bp); expressed in transfected cells
# T7 sequence (P35348 1-466): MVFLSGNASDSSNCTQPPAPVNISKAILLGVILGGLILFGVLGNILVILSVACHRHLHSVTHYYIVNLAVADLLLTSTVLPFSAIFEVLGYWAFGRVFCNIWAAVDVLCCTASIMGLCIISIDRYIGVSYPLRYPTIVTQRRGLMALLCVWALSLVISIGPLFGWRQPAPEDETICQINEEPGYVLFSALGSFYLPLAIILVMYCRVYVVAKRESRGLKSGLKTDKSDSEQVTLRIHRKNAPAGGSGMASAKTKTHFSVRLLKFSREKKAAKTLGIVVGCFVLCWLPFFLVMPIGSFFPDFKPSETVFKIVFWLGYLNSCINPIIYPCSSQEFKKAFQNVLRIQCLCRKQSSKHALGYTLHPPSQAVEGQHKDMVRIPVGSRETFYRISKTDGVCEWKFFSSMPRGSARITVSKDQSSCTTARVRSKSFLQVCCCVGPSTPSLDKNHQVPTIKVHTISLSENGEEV
# Summary of the method: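 Read-out is filter-retained [3H]prazosin (0.5 nM) bound to membranes of LM(tk−) cells stably carrying the human α1C receptor. Incubation ran 20 min at 37° C. at pH 7.5, with 10 μM phentolamine marking nonspecific binding.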
# [4] = [3H]prazosin, cloned human receptor, LM(tk-) cell membranes, mean, read-out: PKi alpha-1 1a (converted)
Structure (SMILES),Ki (α2A receptor) [µM],Ki (α2C receptor) [µM],Ki (α2B receptor) [µM],melting point [°C],"Ki [1, 4] [µM]",Ki [2] [µM],Ki [3] [µM],also measured
"CCC1=C(C(N)=O)C(c2ccc([N+](=O)[O-])cc2)C(C(=O)NCCCN2CCC(c3ccccc3)(c3ccccc3)CC2)=C(COCCN)N1 (racemic) [(±)-144, 2-((2-Aminoethyl)oxy)methyl-5-carboxamido-6-ethyl-1,4-dihydro-4-(4-nitro)phenyl-3-(N-(3-(4,4-diphenylpiperidin-1-yl)propyl))carboxamidopyridine]",–,–,–,–,–,–,–,"Ki (L-type calcium channel; [3H]nitrendipine, rat cardiac muscle membrane fragments, L-type calcium channel, read-out: pKi Ca (converted)): 12.6 µM"
"COC(=O)C1(c2ccccc2)CCN(CCCNC(=O)C2=C(C)NC(C)=C(C(=O)O)C2c2ccc([N+](=O)[O-])cc2)CC1 (centres unmarked) [Example 204, 1,4-Dihydro-2,6-dimethyl-3-{N-[3-(4-methoxycarbonyl-4-phenylpiperidin-1-yl)propyl]}carboxamido-4-(4-nitrophenyl)pyridine-5-carboxylic acid]",1.17,1.23,1.7,139 to 141,–,–,–,–
"COC(=O)C1(c2ccccc2)CCN(CCCNC(=O)C2=C(C)NC(C)=C(C(=O)OCCO)C2c2ccc([N+](=O)[O-])cc2)CC1 (centres unmarked) [Example 207, 1,4-Dihydro-2,6-dimethyl-5-(2-hydroxyethoxycarbonyl)-3-{N-[3-(4-methoxycarbonyl-4-phenylpiperidin-1-yl)propyl]}carboxamido-4-(4-nitrophenyl)pyridine]",0.724,1.78,0.955,90 to 91,1.86,–,–,–
CCOC(=O)C1=C(C)NC(C)=C(C(=O)NCCCN2CCC(C(=O)OC)(c3ccccc3)CC2)C1c1ccc([N+](=O)[O-])cc1 (centres unmarked) [Example 208],2.69,0.977,1.26,73 to 75,0.741,–,–,–
"CC1=C(C(N)=O)C(c2ccc([N+](=O)[O-])cc2)C(C(=O)NCCCN2CCC(c3ccccc3)CC2)=C(COCCN=[N+]=[N-])N1 (centres unmarked) [Example 216, 2-((Azidoethyl)oxy)methyl-5-carboxamido-1,4-dihydro-6-methyl-4-(4-nitro)phenyl-3-(N-(3-(4-phenylpiperidin-1-yl)propyl))carboxamidopyridine]",–,–,–,–,0.0603,0.00708,0.0017,"Ki (L-type calcium channel; [3H]nitrendipine, rat cardiac muscle membranes, mean, read-out: PKi Ca (converted)): 1 µM"
"CC1=C(C(N)=O)C(c2ccc([N+](=O)[O-])cc2)C(C(=O)NCCCN2CCC(c3ccccc3)(c3ccccc3)CC2)=C(COCCN)N1 (centres unmarked) [Example 217, 2-((2-Aminoethyl)oxy)methyl-5-carboxamido-1,4-dihydro-6-methyl-3-(N-(3-(4,4-diphenylpiperidin-1-yl)propyl))carboxamido-4-(4-nitro)phenylpyridine]",–,–,–,–,–,0.447,0.00245,Ki (L-type calcium channel; PKi Ca): 8.13 µM; Ki ([1]; PKi alpha-1 1a): 0.776 µM
